Assay results: the supplement of paper PMC10307832

Key:
Experiment in all cases: relative viability (nuclei count vs DMSO), 5 days (fraction); higher = more cells survive
Masitinib + Decitabine = compound: Cc1ccc(NC(=O)c2ccc(CN3CCN(C)CC3)cc2)cc1Nc1nc(-c2cccnc2)cs1 [Masitinib] + Nc1ncn([C@H]2C[C@H](O)[C@@H](CO)O2)c(=O)n1 [Decitabine] (partner 2 µM)
Method in brief: (§1)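 Relative viability equals treated-well nuclei counts divided by vehicle-well nuclei counts. Counts came from 4× images of lung cancer cell lines grown in 1536-well plates for 5 days after pin-tool dosing on the day after seeding. Dosing used one drug alone or a fixed anchor-drug dose plus five library-drug doses (not always all listed) in √10 steps, and values are medians of duplicate plates.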

Masitinib + Linsitinib = compound: Cc1ccc(NC(=O)c2ccc(CN3CCN(C)CC3)cc2)cc1Nc1nc(-c2cccnc2)cs1 [Masitinib] + C[C@]1(O)C[C@@H](c2nc(-c3ccc4ccc(-c5ccccc5)nc4c3)c3c(N)nccn32)C1 [Linsitinib] (partner 1 µM)
Method in brief: as §1

Masitinib + Trametinib = compound: Cc1ccc(NC(=O)c2ccc(CN3CCN(C)CC3)cc2)cc1Nc1nc(-c2cccnc2)cs1 [Masitinib] + CC(=O)Nc1cccc(-n2c(=O)n(C3CC3)c(=O)c3c(Nc4ccc(I)cc4F)n(C)c(=O)c(C)c32)c1 [Trametinib] (partner 0.02 µM)
Method in brief: as §1

[1] = compound: CC1=CC(=CC=C1)NC2=NC(=CS2)C3=CC=NC=C3 + CCNC(=O)c1noc(-c2cc(C(C)C)c(O)cc2O)c1-c1ccc(CN2CCOCC2)cc1 [Luminespib] (partner 0.01 µM)
Method in brief: as §1

| Cell Line | relative viability (Masitinib + Decitabine; first compound 0.01 µM) | relative viability (Masitinib + Decitabine; first compound 0.03162 µM) | relative viability (Masitinib + Decitabine; first compound 0.1 µM) | relative viability (Masitinib + Decitabine; first compound 0.3162 µM) | relative viability (Masitinib + Decitabine; first compound 1 µM) | relative viability (Masitinib + Linsitinib; first compound 0.01 µM) | relative viability (Masitinib + Linsitinib; first compound 0.03162 µM) | relative viability (Masitinib + Linsitinib; first compound 0.1 µM) | relative viability (Masitinib + Linsitinib; first compound 0.3162 µM) | relative viability (Masitinib + Linsitinib; first compound 1 µM) | relative viability (Masitinib + Trametinib; first compound 0.01 µM) | relative viability (Masitinib + Trametinib; first compound 0.03162 µM) | relative viability (Masitinib + Trametinib; first compound 0.1 µM) | relative viability (Masitinib + Trametinib; first compound 0.3162 µM) | relative viability (Masitinib + Trametinib; first compound 1 µM) | relative viability ([1]; first compound 0.08 µM) | relative viability ([1]; first compound 0.253 µM) | relative viability ([1]; first compound 0.8 µM) | relative viability ([1]; first compound 2.53 µM) | relative viability ([1]; first compound 8 µM) |
| --- | --- | --- | --- | --- | --- | --- | --- | --- | --- | --- | --- | --- | --- | --- | --- | --- | --- | --- | --- | --- |
| 201T | 0.762 | 0.861 | 0.848 | 0.921 | 0.881 | 0.881 | 0.977 | 1.01 | 0.851 | 1.01 | 0.599 | 0.712 | 0.628 | 0.745 | 0.719 | 1.08 | 0.993 | 1 | 0.95 | 0.849 |
| A549 | 0.249 | 0.251 | 0.219 | 0.433 | 0.278 | 0.576 | 0.602 | 0.667 | 0.681 | 0.545 | – | – | – | – | – | – | – | – | – | – |
| A-427 | 0.491 | 0.539 | 0.567 | 0.515 | 0.541 | – | 1.06 | – | 1.18 | 1.07 | 0.623 | 0.74 | 0.842 | 0.75 | 0.676 | 0.738 | 0.916 | 0.918 | 0.729 | 0.866 |
| ABC-1 | 1.02 | 1.14 | 1.24 | 1.06 | 0.865 | 0.78 | 0.78 | 0.982 | 0.871 | 0.622 | – | – | – | – | – | 0.447 | 0.766 | 0.492 | 0.676 | 0.647 |
| BEN | 0.727 | 0.739 | 0.753 | 0.699 | 0.728 | 1.04 | 0.858 | 1.19 | 1.23 | 0.939 | 1.15 | 0.964 | 1.13 | 1.11 | 1.09 | 0.424 | 0.174 | 0.488 | 0.267 | 0.356 |
| CAL-12T | – | – | – | – | – | 0.769 | 0.751 | 0.94 | 0.904 | 0.805 | 0.374 | 0.347 | 0.325 | 0.307 | 0.419 | 0.399 | 0.355 | 0.335 | 0.513 | 0.29 |
| COR-L23 | 0.388 | 0.412 | 0.463 | 0.329 | 0.359 | 1.11 | 0.923 | 1 | 1.07 | 1.05 | 0.543 | 0.641 | 0.673 | 0.686 | 0.571 | 0.603 | 0.648 | 0.564 | 0.659 | 0.662 |
| COR-L 105 | 0.617 | 0.658 | 0.619 | 0.61 | 0.639 | 0.993 | 0.973 | 0.921 | 0.753 | 0.881 | 0.475 | 0.438 | 0.413 | 0.411 | 0.388 | 0.727 | 0.769 | 0.755 | 0.591 | 0.665 |
| Calu-6 | – | – | – | – | – | 0.815 | 0.916 | 1.06 | 0.997 | 0.902 | – | – | – | – | – | – | – | – | – | – |
| ChaGo-K-1 | 0.553 | 0.526 | 0.536 | 0.526 | 0.534 | – | – | – | – | – | 0.972 | 0.852 | 0.986 | 0.909 | 0.906 | 0.525 | 0.605 | 0.57 | 0.589 | 0.372 |
| EBC-1 | – | – | – | – | – | 0.685 | 0.753 | 1.21 | 0.857 | 0.588 | – | – | – | – | – | – | – | – | – | – |
| EKVX | 0.342 | 0.31 | 0.35 | – | 0.541 | – | 0.87 | 0.876 | 0.881 | 1.06 | 0.38 | 0.27 | 0.353 | – | 0.249 | 0.854 | 0.835 | 0.892 | 0.819 | 0.765 |
| EMC-BAC-2 | 0.771 | – | 0.918 | 1.02 | 0.957 | 0.757 | 0.796 | 0.867 | 0.903 | 0.814 | 0.576 | – | 0.705 | 0.806 | 0.821 | 1.15 | 1.23 | 1.15 | 1.1 | 1.13 |
| EPLC-272H | 0.369 | 0.344 | 0.358 | 0.388 | 0.313 | 1.08 | 1.26 | 1.19 | 1.18 | 1.01 | 0.28 | 0.35 | 0.376 | 0.268 | 0.237 | 0.194 | 0.359 | 0.218 | 0.245 | 0.389 |
| H3255 | 0.488 | 0.67 | 0.439 | 0.626 | 0.534 | 0.679 | 0.844 | 0.837 | 0.977 | 0.936 | 0.471 | 0.619 | 0.499 | 0.565 | 0.582 | 0.902 | 0.681 | 0.905 | 0.702 | 0.826 |
| HARA | 0.474 | 0.4 | 0.634 | – | 0.508 | 0.894 | 1.02 | 1.08 | 0.917 | 1.06 | 0.767 | 0.627 | 0.946 | – | 0.897 | 0.494 | 0.872 | 0.496 | 0.684 | 0.359 |
| HCC-15 | 0.58 | 0.546 | 0.659 | 0.582 | 0.638 | 0.8 | 0.826 | 0.941 | 0.863 | 0.952 | 0.364 | 0.373 | 0.389 | 0.234 | 0.354 | 0.386 | 0.299 | 0.475 | 0.31 | 0.274 |
| HCC-44 | 0.665 | 0.898 | 0.675 | 0.868 | 1.09 | 0.567 | 0.487 | 0.648 | 0.568 | 0.666 | 0.811 | 1.04 | 0.989 | 0.853 | 1.07 | 0.974 | 0.939 | 1.06 | 1.01 | 1.09 |
| HCC-78 | 0.634 | 0.637 | 0.605 | 0.693 | 0.615 | 0.417 | 0.423 | 0.55 | 0.557 | 0.486 | 0.509 | 0.787 | 0.746 | 0.745 | 0.65 | – | – | – | – | – |
